Source: patent publication US9186360B2, “Treatment of respiratory disorders using TRPA1 antagonists” (GLENMARK PHARMACEUTICALS S.A., priority 2011, dated 2015)

Tests used:
Type in all cases: cell-based
human TRPA1 = human TRPA1 (Homo sapiens (Human), UniProt O75762); assay: 45Calcium uptake assay, AITC induced, human TRPA1 expressing CHO cells; details: AITC 30 micromolar, read-out: IC50 values hTRPA1
Description: As contemplated herein, the IC50 value is measured by the following method. The inhibition of TRPA1 receptor activation is measured as inhibition of allylisothiocyanate (AITC) induced cellular uptake of radioactive calcium. Test solution of test compound is prepared in a suitable solvent using appropriate method. Human TRPA1 expressing CHO cells are grown in suitable medium. Cells are treated with test compounds followed by addition of AITC. Cells are washed and lysed. Radioactivity in the lysate is measured in Packard Top count after addition of liquid scintillant. The concentration response curves for compounds are plotted as a % of maximal response obtained in the absence of test antagonist, and the IC50 values are calculated from such concentration response curve by nonlinear regression analysis using GraphPad PRISM software.
The illustrative TRPA1 antagonists of the present invention were screened for TRPA1 activity according to a modified procedure described in Tóth, A. et al., Life Sciences 2003, 73, 487-498. The screening of the compounds can be carried out by other methods and procedures known to persons skilled in the art.
Screening for TRPA1 Antagonist Using the 45Calcium Uptake Assay:
The inhibition of TRPA1 receptor activation was measured as inhibition of allylisothiocyanate (AITC) induced cellular uptake of radioactive calcium. Test compounds were dissolved in DMSO to prepare 10 mM stock solution and then diluted using plain medium with 0.1% BSA and 1.8 mM CaCl2 to get desired concentration. Final concentration of DMSO in the reaction was 0.5% (v/v). Human TRPA1 expressing CHO cells were grown in F-12 DMEM medium with 10% FBS, 1% penicillin-streptomycin solution, and 400 μg/ml of G-418. Cells were seeded 24 h prior to the assay in 96 well plates so as to get ˜50,000 cells per well on the day of experiment. Cells were treated with test compounds for 10 min followed by addition of AITC at a final concentration of 30 micromolar and 5 μCi/ml 45Ca+2 for 3 min at 25° C. Cells were washed and lysed using buffer containing 1% Triton X-100, 0.1% deoxycholate and 0.1% SDS. Radioactivity in the lysate was measured in Packard Top count after addition of liquid scintillant.
Concentration response curves were plotted as a % of maximal response obtained in the absence of test antagonist. IC50 value was calculated from concentration response curve by nonlinear regression analysis using GraphPad PRISM software.

human TRPV3 = human TRPV3 (Homo sapiens (Human), UniProt Q8NET8); assay: Radiometric calcium selectivity assay, CHO cells expressing human TRPV3 (2-aminoethoxydiphenyl borate); details: read-out: IC50 values hTRPV3
Description: (§1) For selectivity screening, CHO cells stably expressing human TRPV1, human TRPV3, human TRPV4, or human TRPM8 were generated in-house and maintained in DMEM F-12 supplemented with 10% FBS and G418. All the cell types were cultured at 37° C. in humidified air containing 5% CO2. Radiometric calcium assay was performed as described above with some minor modifications. Assay was carried out in total volume of 200 μl at 30° C. (for TRPV1), 32° C. (for TRPV3) and 25° C. (for TRPV4 and TRPM8). Agonists used for selectivity screening of the different TRPs are: Capsaicin for TRPV1,2-aminoethoxydiphenyl borate for TRPV3, 4α-phorbol 12,13-didecanoate for TRPV4 and Icilin for TRPM8. After 2-5 minutes of agonist treatment, drug was washed and lysed in lysis buffer as mentioned above. Radioactivity in the lysate was measured in Packard Top count after addition of liquid scintillant.

human TRPV1 = human TRPV1 (Homo sapiens (Human), UniProt Q8NER1); assay: Radiometric calcium selectivity assay, CHO cells expressing human TRPV1 (capsaicin); details: read-out: IC50 values hTRPV1
Description: as §1

human TRPM8 = human TRPM8 (Homo sapiens (Human), UniProt Q7Z2W7); assay: Radiometric calcium selectivity assay, CHO cells expressing human TRPM8 (icilin); details: read-out: IC50 values hTRPM8
Description: as §1

human TRPV4 = human TRPV4 (Homo sapiens (Human), UniProt Q9HBA0); assay: Radiometric calcium selectivity assay, CHO cells expressing human TRPV4 (4α-phorbol 12,13-didecanoate); details: read-out: IC50 values hTRPV4
Description: as §1

human TRPM8, sequence (Q7Z2W7 whole entry): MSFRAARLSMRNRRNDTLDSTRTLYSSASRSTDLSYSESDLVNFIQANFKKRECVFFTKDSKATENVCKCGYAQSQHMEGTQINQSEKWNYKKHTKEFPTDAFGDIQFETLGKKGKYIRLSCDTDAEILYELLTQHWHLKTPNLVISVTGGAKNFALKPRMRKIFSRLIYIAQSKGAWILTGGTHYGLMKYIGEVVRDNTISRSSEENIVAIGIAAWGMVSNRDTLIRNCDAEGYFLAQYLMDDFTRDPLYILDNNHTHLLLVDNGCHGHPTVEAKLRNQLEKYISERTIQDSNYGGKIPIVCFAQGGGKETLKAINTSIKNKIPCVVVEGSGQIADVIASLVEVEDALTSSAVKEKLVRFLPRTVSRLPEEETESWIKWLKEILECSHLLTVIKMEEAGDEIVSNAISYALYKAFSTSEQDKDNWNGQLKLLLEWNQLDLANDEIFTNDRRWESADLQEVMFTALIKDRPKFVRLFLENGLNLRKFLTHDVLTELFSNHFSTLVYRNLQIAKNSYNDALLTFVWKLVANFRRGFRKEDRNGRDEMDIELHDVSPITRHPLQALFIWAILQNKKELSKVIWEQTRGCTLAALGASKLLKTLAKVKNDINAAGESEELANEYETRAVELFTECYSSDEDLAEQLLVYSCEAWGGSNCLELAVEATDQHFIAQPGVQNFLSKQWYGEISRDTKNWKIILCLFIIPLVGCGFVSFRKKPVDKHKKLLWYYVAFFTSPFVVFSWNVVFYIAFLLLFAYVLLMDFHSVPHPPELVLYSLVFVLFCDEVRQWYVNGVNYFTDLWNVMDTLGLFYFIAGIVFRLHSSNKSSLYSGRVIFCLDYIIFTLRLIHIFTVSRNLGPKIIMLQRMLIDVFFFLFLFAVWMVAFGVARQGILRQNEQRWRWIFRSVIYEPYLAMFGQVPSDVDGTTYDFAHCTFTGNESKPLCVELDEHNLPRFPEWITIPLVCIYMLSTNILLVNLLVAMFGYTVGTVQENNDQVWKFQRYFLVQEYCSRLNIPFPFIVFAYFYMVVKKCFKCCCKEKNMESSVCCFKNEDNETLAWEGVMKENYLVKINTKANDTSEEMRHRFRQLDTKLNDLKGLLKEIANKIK
human TRPV3, sequence (Q8NET8 whole entry): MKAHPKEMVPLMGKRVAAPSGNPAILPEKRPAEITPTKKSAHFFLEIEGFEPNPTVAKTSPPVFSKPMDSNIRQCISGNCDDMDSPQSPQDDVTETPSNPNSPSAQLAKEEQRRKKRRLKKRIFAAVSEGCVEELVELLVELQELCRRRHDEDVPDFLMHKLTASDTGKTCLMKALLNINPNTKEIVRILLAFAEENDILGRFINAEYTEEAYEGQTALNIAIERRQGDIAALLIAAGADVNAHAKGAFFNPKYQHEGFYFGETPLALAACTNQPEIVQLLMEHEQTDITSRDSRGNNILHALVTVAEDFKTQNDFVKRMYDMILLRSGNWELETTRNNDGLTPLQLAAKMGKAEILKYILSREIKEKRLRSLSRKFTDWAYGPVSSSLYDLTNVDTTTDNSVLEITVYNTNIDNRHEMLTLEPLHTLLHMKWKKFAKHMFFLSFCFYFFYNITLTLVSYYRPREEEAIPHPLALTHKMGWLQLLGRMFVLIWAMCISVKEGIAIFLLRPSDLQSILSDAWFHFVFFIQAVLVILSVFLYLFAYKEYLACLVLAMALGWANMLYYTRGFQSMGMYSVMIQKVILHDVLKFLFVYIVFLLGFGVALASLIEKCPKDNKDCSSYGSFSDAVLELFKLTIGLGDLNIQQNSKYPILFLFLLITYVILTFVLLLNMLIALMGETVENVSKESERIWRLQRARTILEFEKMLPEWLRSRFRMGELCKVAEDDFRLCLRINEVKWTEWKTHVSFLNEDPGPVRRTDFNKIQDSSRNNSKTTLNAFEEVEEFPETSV
human TRPV1, sequence (Q8NER1 whole entry): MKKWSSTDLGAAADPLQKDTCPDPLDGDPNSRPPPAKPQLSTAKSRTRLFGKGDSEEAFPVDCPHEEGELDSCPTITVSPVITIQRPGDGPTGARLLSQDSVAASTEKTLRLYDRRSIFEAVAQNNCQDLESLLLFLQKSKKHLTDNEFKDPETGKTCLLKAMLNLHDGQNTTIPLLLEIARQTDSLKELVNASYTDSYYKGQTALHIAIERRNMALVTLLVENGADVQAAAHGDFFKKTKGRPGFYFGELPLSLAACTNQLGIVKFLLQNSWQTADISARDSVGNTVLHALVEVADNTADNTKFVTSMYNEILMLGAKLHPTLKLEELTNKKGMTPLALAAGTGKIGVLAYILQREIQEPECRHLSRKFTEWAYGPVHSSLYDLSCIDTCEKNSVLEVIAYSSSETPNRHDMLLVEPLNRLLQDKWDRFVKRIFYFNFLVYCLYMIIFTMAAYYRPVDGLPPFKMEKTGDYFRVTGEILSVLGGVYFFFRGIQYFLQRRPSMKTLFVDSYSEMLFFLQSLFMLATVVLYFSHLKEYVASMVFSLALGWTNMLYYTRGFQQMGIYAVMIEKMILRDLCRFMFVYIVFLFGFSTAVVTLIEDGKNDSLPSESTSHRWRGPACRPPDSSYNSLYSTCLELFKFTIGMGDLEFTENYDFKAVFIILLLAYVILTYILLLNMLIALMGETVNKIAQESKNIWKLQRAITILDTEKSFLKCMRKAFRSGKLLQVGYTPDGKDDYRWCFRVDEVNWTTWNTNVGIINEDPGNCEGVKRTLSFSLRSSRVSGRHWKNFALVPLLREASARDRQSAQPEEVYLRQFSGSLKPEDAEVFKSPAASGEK
human TRPA1, sequence (O75762 whole entry): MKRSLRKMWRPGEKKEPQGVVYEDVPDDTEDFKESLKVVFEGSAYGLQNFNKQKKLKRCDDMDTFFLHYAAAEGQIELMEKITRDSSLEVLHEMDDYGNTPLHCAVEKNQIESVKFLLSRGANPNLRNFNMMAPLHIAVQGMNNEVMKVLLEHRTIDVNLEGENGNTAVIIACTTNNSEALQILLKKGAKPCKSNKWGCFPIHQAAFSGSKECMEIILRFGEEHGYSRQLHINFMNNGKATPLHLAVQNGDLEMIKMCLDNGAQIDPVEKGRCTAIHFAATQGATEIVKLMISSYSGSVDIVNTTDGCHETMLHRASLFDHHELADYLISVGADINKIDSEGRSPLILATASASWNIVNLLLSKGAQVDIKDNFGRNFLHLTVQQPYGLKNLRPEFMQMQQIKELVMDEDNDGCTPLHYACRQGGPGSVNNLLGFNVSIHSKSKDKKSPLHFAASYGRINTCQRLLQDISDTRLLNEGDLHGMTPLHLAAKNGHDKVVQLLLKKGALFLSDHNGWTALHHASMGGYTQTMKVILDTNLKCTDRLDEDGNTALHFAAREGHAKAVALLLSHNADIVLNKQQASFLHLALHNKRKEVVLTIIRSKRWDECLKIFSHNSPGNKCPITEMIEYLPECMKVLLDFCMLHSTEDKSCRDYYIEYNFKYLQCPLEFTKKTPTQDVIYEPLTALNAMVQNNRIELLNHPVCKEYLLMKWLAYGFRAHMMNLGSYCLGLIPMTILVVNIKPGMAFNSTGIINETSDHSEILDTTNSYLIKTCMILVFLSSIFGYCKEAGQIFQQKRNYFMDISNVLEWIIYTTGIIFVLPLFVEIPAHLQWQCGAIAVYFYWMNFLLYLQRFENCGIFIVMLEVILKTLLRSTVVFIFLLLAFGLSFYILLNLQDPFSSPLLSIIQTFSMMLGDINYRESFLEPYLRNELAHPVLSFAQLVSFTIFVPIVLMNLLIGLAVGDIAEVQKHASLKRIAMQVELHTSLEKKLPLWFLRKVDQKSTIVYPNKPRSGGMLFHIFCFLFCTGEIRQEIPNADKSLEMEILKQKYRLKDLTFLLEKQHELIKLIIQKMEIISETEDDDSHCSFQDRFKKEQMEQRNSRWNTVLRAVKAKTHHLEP
human TRPV4, sequence (Q9HBA0 whole entry): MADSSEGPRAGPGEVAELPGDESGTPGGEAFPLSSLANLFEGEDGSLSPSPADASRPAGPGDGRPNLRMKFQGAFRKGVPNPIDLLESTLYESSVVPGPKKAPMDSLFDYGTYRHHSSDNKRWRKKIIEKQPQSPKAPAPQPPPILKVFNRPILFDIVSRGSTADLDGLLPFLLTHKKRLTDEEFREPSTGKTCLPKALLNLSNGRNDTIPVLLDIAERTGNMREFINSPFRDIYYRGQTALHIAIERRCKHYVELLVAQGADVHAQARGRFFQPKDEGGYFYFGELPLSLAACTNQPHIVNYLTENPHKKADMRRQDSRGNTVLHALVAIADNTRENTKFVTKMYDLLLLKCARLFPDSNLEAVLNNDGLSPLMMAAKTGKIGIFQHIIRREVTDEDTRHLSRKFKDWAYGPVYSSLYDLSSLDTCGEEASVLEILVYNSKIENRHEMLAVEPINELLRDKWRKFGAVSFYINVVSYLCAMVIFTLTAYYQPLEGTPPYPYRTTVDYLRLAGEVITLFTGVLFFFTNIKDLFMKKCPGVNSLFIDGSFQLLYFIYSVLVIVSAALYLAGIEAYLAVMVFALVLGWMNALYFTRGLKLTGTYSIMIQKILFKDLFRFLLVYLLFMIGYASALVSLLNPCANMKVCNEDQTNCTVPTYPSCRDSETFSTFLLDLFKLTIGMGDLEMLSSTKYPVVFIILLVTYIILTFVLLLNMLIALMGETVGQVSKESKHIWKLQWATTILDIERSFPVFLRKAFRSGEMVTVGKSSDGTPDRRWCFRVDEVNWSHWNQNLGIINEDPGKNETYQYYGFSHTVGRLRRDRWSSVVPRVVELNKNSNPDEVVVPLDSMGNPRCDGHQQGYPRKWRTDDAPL

Compound | IC50 (human TRPA1) [nM] | IC50 (human TRPV3) [nM] | IC50 (human TRPV1) [nM] | IC50 (human TRPM8) [nM] | IC50 (human TRPV4) [nM]
CC(C)c1ccc(-c2csc(NC(=O)Cc3cccc4c3c(=O)n(C)c(=O)n4C)n2)cc1 [Compound 14] | 60.4 | > 1000 | > 10000 | > 10000 | > 1000
Cn1c(=O)c2c(CC(=O)Nc3nc(-c4ccc(F)c(Cl)c4)cs3)cccc2n(C)c1=O [Compound 15] | 53.6 | > 1000 | > 10000 | > 10000 | > 1000
CCc1ccc(-c2csc(NC(=O)Cc3cccc4c3c(=O)n(C)c(=O)n4C)n2)cc1 [Compound 17] | 56 | > 10000 | > 10000 | > 10000 | > 1000
CC(C)CCOc1ccc(-c2csc(NC(=O)Cc3cccc4c3c(=O)n(C)c(=O)n4C)n2)cc1 [Compound 22] | 79.8 | > 10000 | > 10000 | > 10000 | > 1000
CC(C)COc1ccc(-c2csc(NC(=O)Cc3cccc4c3c(=O)n(C)c(=O)n4C)n2)cc1 [Compound 23] | 43.9 | > 10000 | > 10000 | > 10000 | > 1000
Cn1c(=O)c2c(CC(=O)Nc3nc(-c4cccc(Cl)c4F)cs3)cccc2n(C)c1=O [Compound 25] | 58.5 | > 1000 | > 10000 | > 10000 | > 1000
Cn1c(=O)c2c(CC(=O)Nc3nc(-c4cccc(OC(F)(F)F)c4)cs3)cccc2n(C)c1=O [Compound 26] | 47.9 | > 1000 | > 10000 | > 10000 | > 1000
Cn1c(=O)c2c(CC(=O)Nc3nc(-c4cc(F)c(OCC(F)(F)F)c(F)c4)cs3)cccc2n(C)c1=O [Compound 32] | 5.96 | > 10000 | > 10000 | > 10000 | > 1000
Cn1c(=O)c2c(CC(=O)Nc3nc(-c4cc(F)c(C(F)(F)F)c(F)c4)cs3)cccc2n(C)c1=O [Compound 33] | 5.37 | > 10000 | > 10000 | > 10000 | < 1000
Cn1c(=O)c2c(ccn2CC(=O)Nc2nc(-c3ccc(OC(F)(F)F)cc3)cs2)n(C)c1=O [Compound 34] | 38.5 | > 10000 | > 10000 | > 10000 | > 10000
Cn1c(=O)c2c(ccn2CC(=O)Nc2nc(-c3cc(Cl)c(OCCC(F)(F)F)c(Cl)c3)cs2)n(C)c1=O [Compound 35] | 18.1 | > 10000 | > 10000 | > 10000 | > 10000
Cn1c(=O)c2c(ccn2CC(=O)Nc2nc(-c3ccc(C(F)(F)F)c(F)c3)cs2)n(C)c1=O [Compound 36] | 49.9 | > 10000 | > 10000 | > 10000 | > 10000
Cn1c(=O)c2c(cnn2CC(=O)Nc2nc(-c3cc(Cl)c(OCC(C)(C)C)c(Cl)c3)cs2)n(C)c1=O [Compound 37] | 12.3 | > 10000 | > 10000 | > 10000 | > 10000
Cn1nc2c(c1CC(=O)Nc1nc(-c3ccc(C(F)(F)F)c(F)c3)cs1)c(=O)n(C)c(=O)n2C [Compound 38] | 15.9 | > 10000 | > 10000 | > 10000 | > 1000
Cn1nc2c(c1CC(=O)Nc1nc(-c3ccc(C(F)(F)F)cc3)cs1)c(=O)n(C)c(=O)n2C [Compound 39] | 26.6 | > 10000 | > 10000 | > 10000 | > 1000
Cn1c(=O)c2c(cnn2CC(=O)Nc2nc(-c3cc(F)c(OCC(C)(C)C)c(F)c3)cs2)n(C)c1=O [Compound 40] | 22.8 | > 10000 | > 10000 | > 10000 | > 10000
Cn1nc2c(c1CC(=O)Nc1nc(-c3ccc(OC(F)(F)F)c(F)c3)cs1)c(=O)n(C)c(=O)n2C [Compound 41] | 11 | > 10000 | > 10000 | > 10000 | > 1000
Cn1c(=O)c2c(cnn2CC(=O)Nc2nc(-c3cc(F)c(OCC(C)(C)C)c(Cl)c3)cs2)n(C)c1=O [Compound 42] | 11.4 | > 10000 | > 10000 | > 10000 | > 10000
Cn1c(=O)c2c(cnn2CC(=O)Nc2nc(-c3cc(F)c(OCC4CCC4)c(F)c3)cs2)n(C)c1=O [Compound 43] | 18.4 | > 10000 | > 10000 | > 10000 | > 1000
Cn1c(=O)c2c(cnn2CC(=O)Nc2nc(-c3ccc(OCC(C)(C)C)c(F)c3)cs2)n(C)c1=O [Compound 45] | 26.4 | > 1000 | > 10000 | > 10000 | > 1000

The remaining lines, values ahead:

IC50 (human TRPA1) [nM] | IC50 (human TRPV3) [nM] | IC50 (human TRPV1) [nM] | IC50 (human TRPM8) [nM] | IC50 (human TRPV4) [nM] | Compound
48.2 | > 1000 | > 10000 | > 10000 | 2800 | Cn1c(=O)c2c(CC(=O)Nc3nc(-c4ccc(F)cc4F)cs3)cccc2n(C)c1=O [Compound 13]
13.4 | > 10000 | > 10000 | > 10000 | 1320 | Cn1c(=O)c2c(CC(=O)Nc3nc(-c4ccc(C(F)(F)F)c(F)c4)cs3)cccc2n(C)c1=O [Compound 18]
26.1 | > 1000 | > 10000 | > 10000 | 1630 | Cn1c(=O)c2c(CC(=O)Nc3nc(-c4ccc(C(F)(F)F)cc4F)cs3)cccc2n(C)c1=O [Compound 19]
20.1 | > 1000 | > 10000 | > 10000 | 1670 | Cn1c(=O)c2c(CC(=O)Nc3nc(-c4ccc(F)c(C(F)(F)F)c4)cs3)cccc2n(C)c1=O [Compound 20]
48.2 | > 10000 | > 1000 | > 10000 | 520 | Cn1c(=O)c2c(CC(=O)Nc3nc(-c4ccc(Cl)c(C(F)(F)F)c4)cs3)cccc2n(C)c1=O [Compound 21]
138 | > 1000 | > 10000 | > 10000 | > 10000 | Cn1c(=O)c2c(CC(=O)Nc3nc(-c4cc(Cl)ccc4F)cs3)cccc2n(C)c1=O [Compound 24]
65.5 | > 10000 | > 10000 | > 10000 | > 10000 | Cn1c(=O)c2c(CC(=O)Nc3nc(-c4cccc(F)c4F)cs3)cccc2n(C)c1=O [Compound 27]
6.49 | > 1000 | > 10000 | > 10000 | 903 | Cn1c(=O)c2c(CC(=O)Nc3nc(-c4ccc(C(F)(F)F)c(F)c4F)cs3)cccc2n(C)c1=O [Compound 28]
11.4 | > 1000 | > 10000 | > 10000 | > 10000 | Cn1c(=O)c2c(CC(=O)Nc3nc(-c4ccc(OC(F)(F)F)c(F)c4)cs3)cccc2n(C)c1=O [Compound 29]
34 | > 10000 | > 10000 | > 10000 | > 10000 | Cn1c(=O)c2c(CC(=O)Nc3nc(-c4ccc(OC(F)F)c(Cl)c4)cs3)cccc2n(C)c1=O [Compound 30]
17.3 | > 10000 | > 10000 | > 10000 | > 10000 | Cn1c(=O)c2c(CC(=O)Nc3nc(-c4ccc(F)c(C(F)(F)F)c4F)cs3)cccc2n(C)c1=O [Compound 31]
